Holding throughout (type): functional
Experiment [1] deals with Candida albicans. The experiment is described as follows: Antifungal activity against Candida albicans assessed as reduction in fungal cell growth incubated for 24 and 72 hrs by cup plate method.
The next experiment has as its system Aspergillus flavus. The experiment is described as follows: Antifungal activity against Aspergillus flavus assessed as reduction in fungal cell growth incubated for 24 and 72 hrs by cup plate method.
The next experiment relates to Fusarium oxysporum. Description: Antifungal activity against Fusarium oxysporum assessed as reduction in fungal cell growth incubated for 24 and 72 hrs by cup plate method.
In experiment [2] the test system is Candida albicans. Description: Antifungal activity against Candida albicans assessed as reduction in fungal cell growth incubated for 48 hrs by broth microdilution susceptibility method.
Another experiment deals with Cryptococcus neoformans. The experiment is described as follows: Antifungal activity against Cryptococcus neoformans LA314 assessed as reduction in fungal cell growth incubated for 48 hrs by broth microdilution method. The note with it: LA314, 48 h. A general note: Broth dilution looks for growth in wells or tubes with falling amounts of substance.
For the next experiment, the system named is Nakaseomyces glabratus. The experiment is described as follows: Antifungal activity against Candida glabrata assessed as reduction in fungal cell growth incubated for 48 hrs by broth microdilution method.
The test system of a further experiment is Candida parapsilosis. Description: Antifungal activity against Candida parapsilosis ATCC 22019 assessed as reduction in fungal cell growth incubated for 48 hrs by broth microdilution method. The note with it: Lodderomyces parapsilosis, ATCC 22019, 48 h.
Another experiment deals with Pichia kudriavzevii. The experiment is described as follows: Antifungal activity against Candida krusei assessed as reduction in fungal cell growth incubated for 48 hrs by broth microdilution method.
Experiment [3] deals with Candida albicans. The experiment is described as follows: Antifungal activity against Candida albicans assessed as reduction in fungal cell growth incubated for 48 hrs by broth microdilution method.
The next experiment concerns Candida tropicalis. Description: Antifungal activity against Candida tropicalis assessed as reduction in fungal cell growth incubated for 48 hrs by broth microdilution method.
In the next experiment the test system is Aspergillus niger. Description: Antifungal activity against Aspergillus niger assessed as reduction in fungal cell growth incubated for 72 hrs by broth microdilution method.

Among the data in ChEMBL document CHEMBL4393657, “Tetrazole hybrids and their antifungal activities” (2019) are MIC values, retold here.

≈ marks a conversion by molar mass, not a printed value. Where only a bound is given, the exact number is not on record here.

By MIC is commonly meant the lowest concentration that inhibits growth of the organism.

For the molecule `Cc1ccc2cc(/C=C/C(=O)c3cc(Br)ccc3O)c3nnnn3c2c1`, the MIC with Candida albicans [1], in the experiment on Aspergillus flavus and with Fusarium oxysporum was 25 to 100 µg/mL (≈ 61.1 to 244 µM) in each case.

Regarding `Cc1ccc2cc(C3CC(c4cc(Br)ccc4O)=NN3)c3nnnn3c2c1` (stereo unspecified), the MIC in the experiment with Candida albicans [1], with Aspergillus flavus and in the experiment with Fusarium oxysporum was 25 to 100 µg/mL (≈ 59.1 to 236 µM) throughout.

Consider `Cc1cccc2c1cc(C1CC(c3cc(Br)ccc3O)=NN1)c1nnnn12` (stereo unspecified), for which the MIC in the experiment on Candida albicans [1], with Aspergillus flavus and in the experiment on Fusarium oxysporum was 25 to 100 µg/mL (≈ 59.1 to 236 µM) each time.

With `COc1ccc2cc(/C=C/C(=O)c3cc(Br)ccc3O)c3nnnn3c2c1`, the MIC in the experiment with Candida albicans [1], in the experiment on Aspergillus flavus and with Fusarium oxysporum was 25 to 100 µg/mL (≈ 58.8 to 235 µM) in each case.

As for `COc1ccc2cc(C3CC(c4cc(Br)ccc4O)=NN3)c3nnnn3c2c1` (stereo unspecified), the MIC in the experiment on Candida albicans [1], with Aspergillus flavus and with Fusarium oxysporum was 25 to 100 µg/mL (≈ 56.9 to 228 µM) throughout.

For the molecule `COc1ccc2cc(C3CC(c4cc(Br)ccc4O)=NO3)c3nnnn3c2c1` (stereo unspecified), the figures for the minimal inhibitory concentration (MIC) in the experiment on Candida albicans [1], in the experiment on Aspergillus flavus and in the experiment on Fusarium oxysporum were 25 µg/mL (≈ 56.8 µM), 25 µg/mL (≈ 56.8 µM) and 25 to 100 µg/mL (≈ 56.8 to 227 µM), respectively.

For `Cc1ccc2c(c1)cc(/C=C/C(=O)c1cc(Br)ccc1O)c1nnnn12`, the MIC in the experiment on Candida albicans [1], with Aspergillus flavus and in the experiment with Fusarium oxysporum was 25 to 100 µg/mL (≈ 61.1 to 244 µM) in each case.

`Oc1ccc(Br)cc1C1=NNC(c2cc3ccccc3n3nnnc23)C1` (stereo unspecified): the MIC in the experiment with Candida albicans [1], with Aspergillus flavus and in the experiment on Fusarium oxysporum was 25 to 100 µg/mL (≈ 61.1 to 244 µM) throughout.

`Clc1ccccc1C(c1ccccc1)(c1ccccc1)n1ccnc1` [CLOTRIMAZOLE]: the MIC in the experiment on Candida albicans [2] stood at 12.5 µg/mL (≈ 36.2 µM).

For `OC(Cn1cncn1)(Cn1nnc(CCN2CCN(c3cccc(C(F)(F)F)c3)CC2)n1)c1ccc(F)cc1F` (stereo unspecified), the minimum inhibitory concentration (MIC) in the experiment with Cryptococcus neoformans, in the experiment on Nakaseomyces glabratus, in the experiment with Candida parapsilosis, in the experiment on Pichia kudriavzevii, in the experiment with Candida albicans [3] and in the experiment with Candida tropicalis was 1 to 16 µg/mL (≈ 1.77 to 28.4 µM) each time. Also, in the experiment on Aspergillus niger, the minimal inhibitory concentration (MIC) lay within 1 to 16 µg/mL (≈ 1.77 to 28.4 µM).

In the case of `COc1cccc2c1cc(/C=C/C(=O)c1cc(Br)ccc1O)c1nnnn12`, the minimal inhibitory concentration (MIC) in the experiment with Candida albicans [1], with Aspergillus flavus and with Fusarium oxysporum was 25 to 100 µg/mL (≈ 58.8 to 235 µM) each time.

As for `C[C@H](n1nnnc1CCN1CCN(c2c(Cl)cccc2Cl)CC1)[C@](O)(Cn1cncn1)c1ccc(F)cc1F`, the MIC in the experiment with Cryptococcus neoformans, in the experiment with Nakaseomyces glabratus, in the experiment with Candida parapsilosis, with Pichia kudriavzevii, in the experiment with Candida albicans [3] and with Candida tropicalis was 0.12 to 16 µg/mL (≈ 0.207 to 27.7 µM) throughout. The MIC in the experiment on Aspergillus niger fell in the range of 0.12 to 16 µg/mL (≈ 0.207 to 27.7 µM).

As for `CC(n1nnnc1CCN1CCN(c2ccc([N+](=O)[O-])cc2)CC1)C(O)(Cn1cncn1)c1ccc(F)cc1F` (stereo unspecified), the MIC in the experiment with Cryptococcus neoformans, in the experiment with Nakaseomyces glabratus, in the experiment on Candida parapsilosis, in the experiment on Pichia kudriavzevii, in the experiment on Candida albicans [3] and with Candida tropicalis was 0.5 to 16 µg/mL (≈ 0.902 to 28.9 µM) throughout. For the same molecule, the MIC in the experiment with Aspergillus niger was 0.5 to 16 µg/mL (≈ 0.902 to 28.9 µM).

As to `CC(n1nnc(CCN2CCN(Cc3ccccc3)CC2)n1)C(O)(Cn1cncn1)c1ccc(F)cc1F` (stereo unspecified), the MIC in the experiment with Cryptococcus neoformans, with Nakaseomyces glabratus, in the experiment on Candida parapsilosis, with Pichia kudriavzevii, in the experiment with Candida albicans [3] and in the experiment on Candida tropicalis was 1 to 16 µg/mL (≈ 1.91 to 30.6 µM) in each case. In addition, the minimal inhibitory concentration (MIC) with Aspergillus niger was in the range of 1 to 16 µg/mL (≈ 1.91 to 30.6 µM).

Turning to `S=C1N=C(c2ccccc2)CC(c2cc3ccccc3n3nnnc23)N1` (stereo unspecified), in the experiment with Candida albicans [2], the MIC was at least 100 µg/mL.

On to `C[C@H](n1nnnc1CCN1CCN(Cc2ccccc2)CC1)[C@](O)(Cn1cncn1)c1ccc(F)cc1F`, for which the MIC in the experiment with Cryptococcus neoformans, in the experiment with Nakaseomyces glabratus, in the experiment on Candida parapsilosis, in the experiment on Pichia kudriavzevii, in the experiment on Candida albicans [3] and in the experiment with Candida tropicalis was 0.12 to 16 µg/mL (≈ 0.229 to 30.6 µM) in each case. For the same molecule, the MIC in the experiment with Aspergillus niger is 0.12 to 16 µg/mL (≈ 0.229 to 30.6 µM).

For the molecule `C[C@H](n1nnc(CCN2CCN(C(c3ccccc3)c3ccccc3)CC2)n1)[C@](O)(Cn1cncn1)c1ccc(F)cc1F`, the MIC in the experiment with Cryptococcus neoformans, in the experiment on Nakaseomyces glabratus, in the experiment with Candida parapsilosis, in the experiment on Pichia kudriavzevii, with Candida albicans [3] and in the experiment with Candida tropicalis was 0.25 to 16 µg/mL (≈ 0.417 to 26.7 µM) in each case. For the same molecule, the minimal inhibitory concentration (MIC) with Aspergillus niger was 0.25 to 16 µg/mL (≈ 0.417 to 26.7 µM).

Take `COc1ccccc1N1CCN(CCc2nnnn2C(C)C(O)(Cn2cncn2)c2ccc(F)cc2F)CC1` (stereo unspecified): the MIC in the experiment with Cryptococcus neoformans, in the experiment with Nakaseomyces glabratus, in the experiment on Candida parapsilosis, in the experiment with Pichia kudriavzevii, in the experiment with Candida albicans [3] and in the experiment with Candida tropicalis was 0.5 to 16 µg/mL (≈ 0.927 to 29.7 µM) throughout. In addition, the MIC in the experiment with Aspergillus niger was in the range of 0.5 to 16 µg/mL (≈ 0.927 to 29.7 µM).

`OC(Cn1cncn1)(Cn1nnc(CCN2CCN(c3cccc(Cl)c3)CC2)n1)c1ccc(F)cc1F` (stereo unspecified): the MIC in the experiment on Cryptococcus neoformans, in the experiment on Nakaseomyces glabratus, in the experiment on Candida parapsilosis, with Pichia kudriavzevii, with Candida albicans [3] and in the experiment on Candida tropicalis was 1 to 16 µg/mL (≈ 1.89 to 30.2 µM) throughout. For the same molecule, the MIC in the experiment with Aspergillus niger was 1 to 16 µg/mL (≈ 1.89 to 30.2 µM).

With `CCOC(=O)C(C#N)C(c1cc2ccc(C)cc2n2nnnc12)P(=O)(OCC)OCC` (stereo unspecified), the MIC in the experiment on Candida albicans [1], in the experiment on Aspergillus flavus and with Fusarium oxysporum was 10 to 25 µg/mL (≈ 22.5 to 56.1 µM) each time.

With `CCOC(=O)C(C#N)C(c1cc2cc(C)ccc2n2nnnc12)P(=O)(OCC)OCC` (stereo unspecified), the MIC in the experiment with Candida albicans [1], in the experiment on Aspergillus flavus and with Fusarium oxysporum was 10 to 25 µg/mL (≈ 22.5 to 56.1 µM) in each case.

`Cc1ccc2cc(/C=C3\SC(=S)N(CC(=O)O)C3=O)c3nnnn3c2c1`: the MIC in the experiment with Candida albicans [1], in the experiment on Aspergillus flavus and with Fusarium oxysporum was 25 to 50 µg/mL (≈ 64.9 to 130 µM) throughout.

For `C[C@H](n1nnnc1CCN1CCN(c2ccccc2)CC1)[C@](O)(Cn1cncn1)c1ccc(F)cc1F`, the MIC with Cryptococcus neoformans, with Nakaseomyces glabratus, in the experiment on Candida parapsilosis, in the experiment on Pichia kudriavzevii, with Candida albicans [3] and with Candida tropicalis was 0.12 to 16 µg/mL (≈ 0.235 to 31.4 µM) in each case. Moreover, the MIC with Aspergillus niger is 0.12 to 16 µg/mL (≈ 0.235 to 31.4 µM).
